Read-outs that look alike come from different tables or passages of the source.
Legend:
[1] = test system: K562 cells (human chronic granulocytic leukemia); experiment: K562 human leukemia cell suspension culture, cell concentration; format: cell-based; conditions: 1 ug/ml
Procedure: In this example, 1 mcg/ml of 3[[5-methyl-2-thienyl]methylene]2, 4 (3H, 5H) furandione was compared to 1 mcg/ml of 3[[3-methyl-2-thienyl]methylene]2, 4 (3H, 5H) furandione.
(§1) A conventionally available cell line (K562) derived from human chronic granulocytic leukemia was employed in an in vitro procedure. The leukemia cell line was cultured in a suspension of RPMI 1640 plus 10% fetal calf serum. All initial cell concentrations for the cultures were 0.65 times 10^5 cells/ml. Four separate suspension cultures were employed with the first suspension culture having no additions. The second suspension culture included 100 microliters of the solvent DMSO per 10 ml of culture (control). The third culture contained 1 ug/ml of 3[[5-methyl-2 thienyl]methylene]-2, 4 (3H, 5H) furandione and the fourth culture contained 1 ug/ml of 3[[3-methyl-2-thienyl]methylene]-2, 4 (3H, 5H) furandione. The cell concentration of each of the four cultures was determined. After three days and again after five days.

[2] = test system: KS62 strain stem-cell human leukemia cells; experiment: Inhibition of human leukemia cell growth in vitro, as done in Example 3; format: cell-based; conditions: Homo sapiens
Procedure: as §1
In this example, aliquots of 1.0, 5.0 and 10.0 mcg/ml of each of the family compounds was prepared and assayed against KS62 strain stem-cell human leukemia cells in an in vitro procedure as done in Example 3 above.

healthy mice [3] = experiment: Toxicology testing in healthy mice: pathological evaluation; format: in vivo
Procedure: (§2) The purpose of this example was to determine approximate toxicity of the compound 3[(5-methyl-2-thienyl) methylene]-2,4(3H,5H)-furandione in healthy mice. The in vivo concentrations employed in the example were selected by using the in vitro results in the Human Tumor Stem Cell Assay as a guide. The compound was given to the mice by means of intra-peritoneal injection. In addition to a control group which was injected with the appropriate carrier solution without drug, three test groups with calculated plasma concentrations of 1, 10 and 100 mcg/ml (low, medium and high concentrations) were prepared. Based upon the results from Table 1, the three test groups represent low, medium and high concentrations of drug dosages. The highest concentration of 100 mcg/ml is about 10 times the predicted effective dose (in vivo) of tumoricidal activity. Each group contained eight animals. Blood was extracted from four animals in each group two days after the intraperitoneal injection and routine hematology (i.e., a hemoglobin concentration, a white blood cell count, and a neutrophil count) procedures were performed.
As previously stated, half of the animals in each group were sacrificed after one week (Day 7), and the remaining animals were sacrificed after two weeks (Day 14). […]

healthy mice [4] = experiment: Toxicology testing in healthy mice: deaths / LD50; format: in vivo; conditions: i.p.
Procedure: as §2
Half of the animals in each group were sacrificed after one week (Day 7), and the remaining animals in each group were sacrificed after two weeks (Day 14). Routine hematology was performed at the time of sacrifice.

human tumors = experiment: Human Tumor Stem Cell Assay, summary over the tumor panel; format: cell-based; conditions: for activity at 1 µg/mL: Homo sapiens, 1.0 mcg/ml, 1 h
Description: The in vitro Human Tumor Stem Cell Assay procedure described as follows has several advantages for testing the effectiveness of chemotherapy drugs such as the 3-(heteroarylalkylene)-2,4(3H,5H)-furandiones. The first advantage is that fresh tumor cells from a variety of tumor types were used rather than a small number of cell lines which have undergone severe selection pressures as they are passed in vitro. The second advantage is that only the anchorage-independent tumor cells will form colonies in soft agar so that any non-malignant cells present in the sample will not form colonies. Perhaps the most important advantage, however, is the emphasis on cells which have the ability to form colonies. These cells, which are generally called stem cells, usually comprise only a small percentage of all tumor cells. They are thought to be the most important cells for growth and distant spread of a tumor. In particular, these cells have the potential to leave the primary tumor and form new tumors at distant sites (called metastases). It is the effectiveness against these very important stem cells that the Human Tumor Stem Cell Assay measures.
One of the 3-(heteroarylalkylene)-2,4(3H,5H)-furandione compounds, 3-[(5-methyl-2-thienyl) methylene]-2,4(3H,5H)-furandione was evaluated against a series of 10 human tumors in the in vitro Human Tumor Cell Assay, along with conventional and standard chemotherapy agents.
In the procedure, a single cell suspension was prepared from tumors excised from patients during therapeutic or diagnostic surgical procedures. The human tumor cells were exposed to known anticancer drugs or to [(5-methyl-2-thienyl)methylene]-2,4 (3H, 5H)-furandione at a low (0.2 mcg/ml) or a high (1.0 mcg/ml) concentration for one hour. […] The suspension was washed with tissue culture medium to remove the drug.
The suspension was then cultured in a double soft agar suspension. Control cells which had been treated identically, except for exposure to the drugs, were also cultured. After one to two weeks, both the tumor cells and the control cells formed colonies in the soft agar which were enumerated under a microscope. The number of colonies grown from the drug-treated cells was compared to the number of colonies grown from the control cells, and the percentage growth after exposure to the drug was calculated.
The results are illustrated in Table 1, wherein the various numbers indicate the percentage of growth. For example, a small number like 6 means that the number of colonies is only 6% of the number without addition of the compound. On the other hand, a large number like 120 means that the number of colonies is 20% greater with the compound than without. […]

Cc1ccc(C=C2C(=O)COC2=O)s1 [Compound 4, 3[(5-methyl-2-thienyl)methylene]2,4(3H,5H)-furandione]
effect on leukemia culture [1]: very effective against the leukemia culture as demonstrated by the remarkable decrease in cell concentration | Cell Conc. ([1]; 3 Days): 70000 mL⁻¹ | Cell Conc. ([1]; 5 Days): 50000 mL⁻¹ | inhibition at 1 µg/mL ([2]; 1.0 mcg/ml): 32% | inhibition at 5 µg/mL ([2]; 5.0 mcg/ml): 97% | inhibition at 10 µg/mL ([2]; 10.0 mcg/ml): 100% | pathology of organs, bone, brain, etc. (healthy mice [3]; all dose groups, 7 or 14 days): not remarkably altered within the testing period | pathology of organs, bone, etc., vs low concentration and control groups (healthy mice [3]; high concentrations): do not appear to affect any of the organs, bone, etc. of the test animals to any lesser or greater degree than the low concentration drug group or the control group | deaths due to the compound (healthy mice [4]; 1, 10, 100 mcg/ml calculated plasma, testing period): no deaths | LD50 (healthy mice [4]; as calculated plasma concentration): > 100 µg/mL | activity at 1 µg/mL (human tumors; five of nine tumors, read-out: growth, borderline sensitive tumors): 30 to 50% | activity at 1 µg/mL (human tumors; four of nine tumors, read-out: growth, sensitive tumors): 0 to 30% | peak plasma concentration at which compound should be effective in vivo (human tumors; by analogy with other chemotherapy drugs): 10 µg/mL | activity against human solid tumors in vitro (human tumors; one hour exposure, 1 mcg/ml): extremely active against a wide variety of human solid tumors in vitro

From US4996227A, “3-(heteroarylalkyene)- and 3-(arylalkylene)-2,4(3H,5H)-heterocyclic diones as cancer chemotherapy drugs” (priority 1989, dated 1991)
